Active and inactive are the calls of the source. How the calls were made is not given here. A value given as a limit tells only on which side of the number the result lay.

The test system of assay [1] is Cytotoxicity. Briefly: inhibitors of PAF-induced NFkB signaling in CF airway cells, dose response, cell-based, uHTS hits, panel, cytotoxicity readout (AID 624344). As to conditions: CF bronchial epithelial cells, mean of runs.
Assay in assay [2]: as above
As to conditions: CF bronchial epithelial cells, PAF-induced NFkB reporter inhibition; with PAF, mean of runs.

Regarding `COc1ccc2c(c1)[nH]c1c(C)nccc12`, the IC50 in assay [1] is > 79 µM (inactive); in assay [2], 3.77 µM.

On to `O=S(=O)(Nc1nc2ccccc2nc1N1CCN(c2ccccc2F)CC1)c1ccc(Cl)cc1`, for which the IC50 in assay [1] was 10.5 µM; in assay [2] it was 5.66 µM.

As for `NC1(C(=O)O)CSSC1`, the results for the IC50 in assay [1] and in assay [2] were 35.6 µM and 7.73 µM, respectively.

For the compound `COc1ccc(-c2cc(=O)oc3c(C)c(O)ccc23)cc1`, the IC50 in assay [1] was 67.5 µM (inactive); in assay [2] it was 0.867 µM.

On to `COc1ccc2[nH]c3c(c2c1)CCN1C(=O)C(CC(=O)NCCC2=CCCCC2)C[C@H](C(=O)N2CCCCC2)[C@@]31CCc1ccccc1` (stereo partly drawn), for which the IC50 is 44.1 µM in assay [1] and 8.09 µM in assay [2].

On to `Cc1ccc(S(=O)(=O)CC(CN2CCCCC2)N2CCCCC2)cc1` (stereo not drawn), for which the values for the IC50 in assay [1] and in assay [2] were 33.3 µM and 6.85 µM, respectively.

Turning to `Cc1cccc(NC(=O)Nc2ccc(C#N)cc2)n1`, the IC50 in assay [1] was 20.6 µM; in assay [2] it was 1.78 µM.

Take `Cc1nnc(NC(=O)Nc2ccc(Cl)c(Cl)c2)s1`: the IC50 was 15.3 µM in assay [1] and 2.78 µM in assay [2].

For `Cc1[nH]nc2c1-c1nc3ccccc3nc1C(C)(C)C2`, the IC50 in assay [1] is > 79 µM (inactive); in assay [2], 10.4 µM.

On to `CC(=O)Nc1ccc(NC(=O)c2nc(S(=O)(=O)Cc3cccc(C)c3)ncc2Cl)cc1`, for which the figures for the IC50 in assay [1] and in assay [2] were 11.5 µM and 5.98 µM, respectively.

`COc1cc2c(c(OC)c1OC)-c1ccc(NCc3ccccc3)c(=O)cc1C(NC(C)=O)CC2` (stereo not drawn): the IC50 in assay [1] was 45.8 µM; in assay [2], 15.5 µM.

In the case of `COCCCN=C1NN=C(c2cc(C)n(Cc3ccccc3Cl)c2C)CS1`, the IC50 in assay [1] is > 79 µM (inactive). Further, the IC50 entry in assay [2] is “inactive”.

On to `CC(C)C[C@H](CO)Nc1nc(Nc2cccc(Cl)c2)c2ncn(C(C)C)c2n1`, for which the IC50 in assay [1] was 36.2 µM; in assay [2], 5.12 µM.

Consider `CCC(=O)c1ccc(O)c(CC=C(C)C)c1`, for which the IC50 was 60.1 µM (inactive) in assay [1] and 5.27 µM in assay [2].

`CC(=O)c1cccc(NC(=O)COC(=O)c2ccc(S(C)(=O)=O)c([N+](=O)[O-])c2)c1`: the IC50 in assay [1] is 12.6 µM; in assay [2], 5.26 µM.

With `CCc1ccc(N(CC)c2ncnc3nc[nH]c23)cc1`, the IC50 in assay [1] was > 79 µM (inactive); in assay [2], 1.82 µM.

As to `COc1cccc2c(SCC(=O)N/N=C/c3ccccc3)cc(C)nc12`, the IC50 is 38.6 µM in assay [1] and 6.95 µM in assay [2].

In the case of `O=C1NC(=S)N/C1=C\c1cccnc1`, the IC50 was > 79 µM (inactive) in assay [1] and 5.71 µM in assay [2].

Consider `CCSc1nsc(NC(=O)Nc2cccc(C(C)=O)c2)n1`, for which the IC50 in assay [1] was 36.5 µM; in assay [2], 2.24 µM.

For the compound `O=C(c1ccc(O)c(Br)c1)c1cc(Br)ccc1O`, the IC50 is 16.4 µM in assay [1] and 4.08 µM in assay [2].

Turning to `Cc1cc(C)c(O)c(CN(C)Cc2cc(Cl)cc(Cl)c2O)c1`, the IC50 in assay [1] was 9.57 µM; in assay [2], 4.39 µM.

As for `CS(=O)(=O)c1ccc2nc(NC(=O)Nc3cccc(Cl)c3)sc2c1`, the IC50 is 3.28 µM in assay [1] and 3.67 µM in assay [2].

On to `CC(C)(CO)CNc1ccn2nccc2n1`, for which the IC50 is 76.7 µM (inactive) in assay [1] and 5.29 µM in assay [2].

As to `COc1ccc(OC)c(N(CCN2C(=O)c3ccccc3C2=O)C(=O)CCl)c1`, the half-maximal inhibitory concentration (IC50) in assay [1] is 4.33 µM; in assay [2], 4.03 µM.

Turning to `COc1cccc(Nc2ncnc3ccc(Br)cc23)c1`, the figures for the IC50 in assay [1] and in assay [2] were 9.61 µM and 1.08 µM, respectively.

For `CC1CCN(Cc2c(C(=O)N/N=C/c3ccc(C(C)(C)C)cc3)nnn2-c2nonc2N)CC1`, the values for the IC50 in assay [1] and in assay [2] were 29.8 µM and 14.6 µM, respectively.

In the case of `CCCN(CCC)c1ncnc2nc[nH]c12`, the IC50 is 57.3 µM (inactive) in assay [1] and 1.32 µM in assay [2].

As to `Cc1c(C(=O)OCC(C)C)[nH]c2c1C(=O)CC(c1ccco1)C2` (stereo not drawn), the IC50 in assay [1] is 38.3 µM. For the same compound, the IC50 entry in assay [2] was “inactive”.

On to `COc1ccc(-c2cc(=O)oc3cc(OC(=O)C4CCCCC4)c(Cl)cc23)cc1`, for which the IC50 was 61.6 µM (inactive) in assay [1] and 0.302 µM in assay [2].

As to `COc1ccccc1[C@]1(C)ON(c2ccccc2C(F)(F)F)C1=O`, the IC50 was 66.9 µM (inactive) in assay [1] and 4.14 µM in assay [2].

With `COc1cccc(/C=N/n2c(C3CCCCC3)n[nH]c2=S)c1`, the IC50 in assay [1] was 33.7 µM; in assay [2], 3.97 µM.

In the case of `CC(C)(C)S(=O)N1Cc2cc(C(=O)NCC(F)(F)F)nc(-c3cccc(-c4cccc(F)c4)c3)c2[C@@H]1CCO` (stereo partly drawn), the IC50 is 16 µM in assay [1] and 5.86 µM in assay [2].

In the case of `CC(C)c1nc(NCCO)c(C#N)c2c1CCCC2`, the IC50 in assay [1] was > 79 µM (inactive); in assay [2], 5.77 µM.

In the case of `c1ccc2c(c1)Nc1ccncc1S2`, the results for the IC50 in assay [1] and in assay [2] were 44.1 µM and 1.46 µM, respectively.

Take `S=c1[nH]nc(-c2ccncc2)n1/N=C/C(Cl)=C\c1ccccc1`: the results for the IC50 in assay [1] and in assay [2] were 35 µM and 1.06 µM, respectively.

On to `O=[N+]([O-])C1C(c2ccccc2)C12c1ccccc1-c1ccccc12` (stereo not drawn), for which the IC50 in assay [1] is 64.1 µM (inactive). Besides, the IC50 entry in assay [2] was “inactive”.

For the compound `O=[N+]([O-])c1ccc(Oc2ccc(F)cc2)c2ccncc12`, the IC50 in assay [1] is 42.4 µM; in assay [2] it was 1.82 µM.

`COc1ccc2cc3c(N)nn(C(=O)Cc4ccccc4OC)c3nc2c1`: the IC50 in assay [1] is 47.4 µM; in assay [2], 2.67 µM.

On to `O=C(NCCCSc1ccccc1)c1cc(Cl)ccc1O`, for which the half-maximal inhibitory concentration (IC50) is 7.97 µM in assay [1] and 5.03 µM in assay [2].

Take `CNC(=O)c1ccc(NC(=O)C2CCN(c3ncnc4sc(C)c(C)c34)CC2)cc1`: the IC50 was > 79 µM (inactive) in assay [1] and 5.49 µM in assay [2].

Take `COc1ccc2[nH]cc(C(=O)CCl)c2c1`: the results for the IC50 in assay [1] and in assay [2] were 1.94 µM and 1.21 µM, respectively.

Consider `COc1cc(CN(C)c2ccc(S(=O)(=O)N3CCCC3)cn2)ccc1OC(F)F`, for which the IC50 in assay [1] was > 79 µM (inactive); in assay [2], 0.453 µM.

Consider `O=C(NNC(=S)Nc1cccc(C(F)(F)F)c1)c1cccc(Cl)c1`, for which the IC50 in assay [1] is 9.54 µM; in assay [2], 4.81 µM.

For `O=C(Nc1ccccc1)Nc1ncc([N+](=O)[O-])s1`, the figures for the IC50 in assay [1] and in assay [2] were 12.6 µM and 2.73 µM, respectively.

In the case of `COc1ccc(-c2cc(NC=O)c3ncc(-c4ccc(OC)c(OC)c4)n3c2)c(OC)c1`, the IC50 is 29.8 µM in assay [1] and 11.7 µM in assay [2].

On to `O=C(N/N=C/c1ccccc1)c1[nH]c2ccc(Br)cc2c1-c1ccccc1`, for which the results for the IC50 in assay [1] and in assay [2] were 40.6 µM and 6.11 µM, respectively.

`CC(C)(C)OC(=O)NCCCCCNC(=O)c1nc[nH]c1C(=O)NCC(=O)OCc1ccccc1`: the IC50 is 9.6 µM in assay [1] and 3.56 µM in assay [2].

Consider `COc1ccc(-c2cn[nH]c2-c2ccc(OCc3ccc([N+](=O)[O-])cc3)cc2O)cc1`, for which the IC50 is 31.8 µM in assay [1] and 4.72 µM in assay [2].

In the case of `CS(=O)(=O)c1ccc2nc(NC(=O)CCS(=O)(=O)c3ccccc3)sc2c1`, the results for the IC50 in assay [1] and in assay [2] were > 79 µM (inactive) and 4.88 µM, respectively.

Regarding `O=C(/C=C/c1cccs1)Nc1cccc(NC(=O)/C=C/c2cccs2)n1`, the IC50 was 1.57 µM in assay [1] and 5.98 µM in assay [2].

Regarding `c1nc(NCc2ccc3c(c2)OCO3)c2cc(-c3ccoc3)ccc2n1`, the IC50 was 5.93 µM in assay [1] and 0.34 µM in assay [2].

For the compound `CN(C)c1ccc(C(C(=O)NCc2ccccc2)N(Cc2ccco2)C(=O)c2snc(C(N)=O)c2N)cc1` (stereo not drawn), the IC50 in assay [1] is 6.97 µM; in assay [2] it was 3.08 µM.

`Cc1ccc(C(=O)c2cncc(Br)c2)cc1`: the IC50 in assay [1] is > 79 µM (inactive); in assay [2], 13 µM.

As to `O=C(NCc1ccco1)c1nc2c(nnn2Cc2ccccc2Cl)c(=O)[nH]1`, the IC50 was 5.1 µM in assay [1] and 1.46 µM in assay [2].

As to `C=C(C)[C@@H]1CC[C@]2(C(=O)O)CC[C@]3(C)[C@H](CC[C@@H]4[C@@]5(C)CC[C@H](O)C(C)(C)[C@@H]5CC[C@]43C)[C@@H]12`, the IC50 in assay [1] is 42.2 µM. Moreover, the IC50 result in assay [2] is “inactive”.

`Nc1nc(N)nc(-c2ccc(Cl)c(Cl)c2)n1`: the IC50 in assay [1] is 20.3 µM; in assay [2], 2.78 µM.

In the case of `CC1Sc2ccc(Cl)cc2-c2nc(N)ncc21` (stereo not drawn), the IC50 in assay [1] is 75 µM (inactive); in assay [2], 6.98 µM.

Consider `Cc1ccc(-c2n[nH]c(=S)n2/N=C/c2ccncc2)cc1`, for which the IC50 in assay [1] is 53.1 µM (inactive); in assay [2], 2.63 µM.

Consider `N#Cc1ccsc1NC(=O)c1ccc(Cl)c([N+](=O)[O-])c1`, for which the IC50 in assay [1] was 18.4 µM; in assay [2] it was 4.95 µM.

Regarding `CC(=O)c1ccc(-n2c(C)c(C(C)=O)c3cc(O)ccc32)cc1`, the IC50 in assay [1] was 44.5 µM; in assay [2], 1.34 µM.

Regarding `CCOCC(=O)NC1CCc2cc(OC(=O)COCC)c(OC)c(OC)c2-c2ccc(SC)c(=O)cc21` (stereo not drawn), in assay [1], the IC50 was 44.5 µM. In addition, the IC50 result in assay [2] is “inactive”.

`CC1C(c2ccccc2)OCCN1C(=S)Nc1ccc(S(=O)(=O)N2CCCCC2)cc1` (stereo not drawn): the figures for the IC50 in assay [1] and in assay [2] were 56.5 µM (inactive) and 9.52 µM, respectively.

For the compound `CN1CCN(c2ncnc3scc(-c4ccccc4Cl)c23)CC1`, the results for the IC50 in assay [1] and in assay [2] were 57.2 µM (inactive) and 3.89 µM, respectively.

For the compound `CCOC(=O)C1(C(=O)OCC)COC(=O)C1CN1Cc2cc3ccccc3nc2C1` (stereo not drawn), the IC50 was 11.1 µM in assay [1] and 7.48 µM in assay [2].

For `CC1(C)CC(=O)C=C(NC2=CC3OC(c4ccccc4)OCC3OC2=O)C1` (stereo not drawn), the values for the IC50 in assay [1] and in assay [2] were 16.9 µM and 3.35 µM, respectively.

Consider `COc1cc2c(Cc3ccccc3)cncc2cc1O`, for which the IC50 was 36.8 µM in assay [1] and 6.42 µM in assay [2].

In the case of `C=CC[C@@H](CC/C=C/C=C/CC/C=C\[C@@H]1CSC([C@@H]2C[C@@H]2C)=N1)OC`, the IC50 in assay [1] is 63 µM (inactive). The IC50 result in assay [2] was “inactive”.

As for `COc1cc2c(c(OC)c1OC)-c1ccc(O)cc1C(NC(C)=O)CC2` (stereo not drawn), the IC50 in assay [1] and in assay [2] was > 79 µM (inactive) each time.

On to `COC(=O)c1ccc(NC(=O)c2ccccc2NS(=O)(=O)c2ccccc2)cc1`, for which the IC50 in assay [1] was 39 µM; in assay [2], 4.53 µM.

As a reminder, the IC50 is the point on the concentration scale where inhibition reaches its midpoint.

Values taken from PubChem BioAssay AID624344 (Sanford-Burnham Center for Chemical Genomics, 2012).
